Source: patent US9023789B2, “Amylin analogs and pharmaceutical compositions thereof” (Novo Nordisk A/S, priority 2012, dated 2015)
Values after ≈ are worked out from the molar mass of the structure shown. Like-named read-outs stand apart in the source and are kept apart here. Numbered stars: 1 amine (or outer) side, 2 acyl side, 3 side chain; on linkers, the order of the positions; unused ones are H or OH. Bridge positions count the residues as written; N and C are the ends. Side chains are listed from the residue outwards. Peptide text beside a SMILES is read from it. * marks the point of attachment. C20 diacid = O=C(O)CCCCCCCCCCCCCCCCCCC(=O)*; γGlu = O=C(O)[C@H](CCC(=O)[*:2])N[*:1]

Legend:
[1] = ASSAY (IV) determination of solubility; assay type: physicochemical
Outline: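 Dissolve polypeptide in water ([…] stock); combine 1:1 with each 100 mM buffer (glycylglycine pH 3.0/4.0/5.0; bistrispropane pH 6.0/6.5/7.0/7.5/8.0); hold 18 hours at room temperature; centrifuge; quantify polypeptide by UPLC.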

[2] = molecular target: T1, human amylin receptor (membranes from Amylin 3(a)/CRE-luc cells) (Homo sapiens, UniProt O60896+P30988); assay: ASSAY (V) binding to the human amylin receptor (SPA, 125I-rat amylin);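 note: competition binding of cell membranes (35 ng/µL) mixed with SPA beads in 384-well plates at 40 µL total volume, read by scintillation counting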
T1 construct: expressed in transfected cells
T1 sequence (P30988 25-474): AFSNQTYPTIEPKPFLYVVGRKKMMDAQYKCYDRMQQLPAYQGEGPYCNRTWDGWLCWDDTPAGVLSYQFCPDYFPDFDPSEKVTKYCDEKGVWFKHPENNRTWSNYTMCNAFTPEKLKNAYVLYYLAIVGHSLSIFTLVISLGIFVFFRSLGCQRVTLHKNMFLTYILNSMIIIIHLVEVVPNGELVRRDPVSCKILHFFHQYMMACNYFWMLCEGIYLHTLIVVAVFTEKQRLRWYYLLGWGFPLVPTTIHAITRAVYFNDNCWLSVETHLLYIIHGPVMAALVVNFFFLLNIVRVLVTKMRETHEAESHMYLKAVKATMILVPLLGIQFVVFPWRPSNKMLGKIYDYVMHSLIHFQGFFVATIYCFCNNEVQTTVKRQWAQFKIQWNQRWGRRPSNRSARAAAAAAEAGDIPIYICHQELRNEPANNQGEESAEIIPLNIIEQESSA
T1 sequence (O60896 24-148 partner): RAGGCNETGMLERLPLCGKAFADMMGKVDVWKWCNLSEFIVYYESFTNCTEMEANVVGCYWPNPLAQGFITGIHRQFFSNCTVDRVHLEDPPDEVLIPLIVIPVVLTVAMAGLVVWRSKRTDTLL

[3] = molecular target: T2, rat amylin receptor (rat calcitonin receptor + rat RAMP 3) (Rattus norvegicus, UniProt P32214+Q9JJ73); assay: ASSAY (VI) binding to the rat amylin receptor; conditions: for IC50: binding to rat amylin receptor, read-out: rAmylin-R bind IC50
T2 construct: expressed in transfected cells; host or cells: BHK tk'ts 13 (transient, FuGENE 6), membranes
T2 sequence (P32214 25-479 isoform P32214-2 limits assumed): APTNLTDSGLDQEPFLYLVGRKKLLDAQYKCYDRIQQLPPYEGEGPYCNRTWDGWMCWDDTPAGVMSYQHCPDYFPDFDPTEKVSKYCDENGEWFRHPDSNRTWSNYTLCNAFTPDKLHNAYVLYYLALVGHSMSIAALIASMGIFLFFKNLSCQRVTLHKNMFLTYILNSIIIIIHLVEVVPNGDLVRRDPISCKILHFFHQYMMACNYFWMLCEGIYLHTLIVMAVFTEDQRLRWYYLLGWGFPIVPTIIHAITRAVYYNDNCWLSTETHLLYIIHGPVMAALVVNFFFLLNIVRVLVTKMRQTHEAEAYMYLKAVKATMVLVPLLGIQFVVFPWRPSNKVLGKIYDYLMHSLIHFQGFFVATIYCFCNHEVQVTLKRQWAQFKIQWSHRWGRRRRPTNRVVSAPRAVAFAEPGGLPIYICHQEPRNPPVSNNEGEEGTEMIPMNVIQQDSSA
T2 sequence (Q9JJ73 23-147 partner): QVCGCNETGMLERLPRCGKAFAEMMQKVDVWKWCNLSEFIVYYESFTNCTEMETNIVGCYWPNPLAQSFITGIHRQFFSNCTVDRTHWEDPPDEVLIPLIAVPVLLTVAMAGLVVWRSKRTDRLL
Outline: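 Binding to the rat amylin receptor was determined with membrane preparations. The receptor was expressed by transiently transfecting BHK tk′ts 13 cells with rat calcitonin receptor, using FuGENE® 6 (Roche) according to the manufacturer's recommendations. Roughly 48 hours later the cells were harvested and their membranes isolated.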

rat calcitonin receptor = molecular target: T3, rat calcitonin receptor (Rattus norvegicus, UniProt P32214); assay: ASSAY (VIII) binding to the rat calcitonin receptor; conditions: Table 7, read-out: rCTR bind IC50
T3 construct: expressed in transfected cells; host or cells: BHK tk'ts 13 (transient, FuGENE 6), membranes
T3 sequence (P32214 25-479 isoform P32214-2 limits assumed): T2 sequence (P32214 25-479 isoform P32214-2 limits assumed)
Outline: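 Rat calcitonin receptor is expressed transiently in BHK tk′ts 13 cells cultured in DMEM with 10% FBS. Roughly two days (approximately 48 hours) post-transfection, cells are harvested for membrane preparation.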

[4] = bistrispropane buffer, pH 6.5, read-out: Solubility pH 6.5 Concentration
[5] = bistrispropane buffer, pH 7.5, read-out: Solubility pH 7.5 Concentration
[6] = bistrispropane buffer, pH 6.0, read-out: Solubility pH 6.0 Concentration
[7] = bistrispropane buffer, pH 7.0, read-out: Solubility pH 7.0 Concentration
[8] = bistrispropane buffer, pH 8.0, read-out: Solubility pH 8.0 Concentration
[9] = glycylglycine buffer, pH 3.0, read-out: Solubility pH 3.0 Concentration
[10] = glycylglycine buffer, pH 4.0, read-out: Solubility pH 4.0 Concentration
[11] = glycylglycine buffer, pH 5.0, read-out: Solubility pH 5.0 Concentration
[12] = Table 5, selectivity, hCTR bind IC50 / hAmylin-R bind IC50
[13] = Table 5a, selectivity, hCTR bind IC50 / hAmylin-R bind IC50
[14] = Table 7, human binding selectivity, included for comparison
[15] = Table 7a (preferred compounds), human binding selectivity, included for comparison
[16] = ratio of human calcitonin receptor binding IC50 to human amylin receptor binding IC50
[17] = Table 7, rat binding selectivity, rCTR IC50 / rAmylin-R IC50
[18] = Table 7a (preferred compounds), rat binding selectivity, rCTR IC50 / rAmylin-R IC50
[19] = ratio of rCTR bind IC50 to rAmylin-R bind IC50

| SMILES | solubility at 18 h [1, 4] [µM] | solubility at 18 h [1, 5] [µM] | solubility at 18 h [1, 6] [µM] | solubility at 18 h [1, 7] [µM] | solubility at 18 h [1, 8] [µM] | solubility at 18 h [1, 9] [µM] | solubility at 18 h [1, 10] [µM] | solubility at 18 h [1, 11] [µM] | Ratio hCT/hAmylin binding [2, 12] | Ratio hCT/hAmylin binding [2, 13] | Ratio hCT/hAmylin binding [2, 14] | Ratio hCT/hAmylin binding [2, 15] | Ratio hCT/hAmylin binding [2, 16] | IC50 ([3]; Table 7) [nM] | Ratio rCT/rAmylin binding [3, 17] | Ratio rCT/rAmylin binding [3, 18] | Ratio rCT/rAmylin binding [3, 19] | IC50 (rat calcitonin receptor) [nM] | Ratio hCT/hAmylin binding ([2]; Table 5b, selectivity, hCTR bind IC50 / hAmylin-R bind IC50) |
| --- | --- | --- | --- | --- | --- | --- | --- | --- | --- | --- | --- | --- | --- | --- | --- | --- | --- | --- | --- |
| CC[C@H](C)[C@H](NC(=O)[C@H](C)NC(=O)CNC(=O)[C@H](Cc1ccccc1)NC(=O)[C@H](CC(N)=O)NC(=O)[C@@H]1CCCN1C(=O)[C@H](CO)NC(=O)[C@H](CO)NC(=O)[C@H](Cc1c[nH]cn1)NC(=O)[C@H](CCCNC(=N)N)NC(=O)[C@H](CC(C)C)NC(=O)[C@H](Cc1ccccc1)NC(=O)[C@H](CCC(=O)O)NC(=O)[C@H](C)NC(=O)[C@H](CC(C)C)NC(=O)[C@H](CCCNC(=N)N)NC(=O)[C@H](CCC(N)=O)NC(=O)[C@@H](NC(=O)[C@H](C)NC(=O)[C@@H]1CSSC[C@H](NC(=O)[C@H](CCCCN)NC(=O)CC[C@H](NC(=O)CCCCCCCCCCCCCCCCCCC(=O)O)C(=O)O)C(=O)N[C@@H](CC(N)=O)C(=O)N[C@@H]([C@@H](C)O)C(=O)N[C@@H](C)C(=O)N[C@@H]([C@@H](C)O)C(=O)N1)[C@@H](C)O)C(=O)N1CCC[C@H]1C(=O)N[C@@H](CO)C(=O)N[C@@H](CO)C(=O)N[C@H](C(=O)N[C@@H](CC(N)=O)C(=O)N[C@H](C(=O)NCC(=O)N[C@@H](CO)C(=O)N[C@@H](CCC(=O)O)C(=O)N[C@H](C(=O)N[C@@H](Cc1ccc(O)cc1)C(N)=O)[C@@H](C)O)C(C)C)[C@@H](C)O [Example 22] ({C20 diacid-γGlu}-KCNTATCATQRLAEFLRHSSPNFGAIPSSTNVGSETY-NH2; disulfide 2-7) | ≥ 200 | ≥ 200 | 195 (≈ 860 µg/mL) | ≥ 200 | ≥ 200 | ≥ 200 | ≥ 200 | ≥ 200 | 12.3 | 12.3 | 12.3 | 12.3 | 12.3 | 2.19 | 28.5 | 28.5 | 28.5 | 62.5 | – |
| CC[C@H](C)[C@H](NC(=O)[C@H](C)NC(=O)CNC(=O)[C@H](Cc1ccccc1)NC(=O)[C@H](CC(N)=O)NC(=O)[C@@H]1CCCN1C(=O)[C@H](CO)NC(=O)[C@H](CO)NC(=O)[C@H](Cc1c[nH]cn1)NC(=O)[C@H](CCCNC(=N)N)NC(=O)[C@H](CC(C)C)NC(=O)[C@H](Cc1ccccc1)NC(=O)[C@H](CCC(=O)O)NC(=O)[C@H](C)NC(=O)[C@H](CC(C)C)NC(=O)[C@H](CCCNC(=N)N)NC(=O)[C@H](CCC(N)=O)NC(=O)[C@@H](NC(=O)[C@H](C)NC(=O)[C@@H]1CSSC[C@H](NC(=O)[C@H](CCCCN)NC(=O)CC[C@H](NC(=O)CCCCCCCCCCCCCCCCCCC(=O)O)C(=O)O)C(=O)N[C@@H](CC(N)=O)C(=O)N[C@@H]([C@@H](C)O)C(=O)N[C@@H](C)C(=O)N[C@@H]([C@@H](C)O)C(=O)N1)[C@@H](C)O)C(=O)N1CCC[C@H]1C(=O)N[C@@H](CO)C(=O)N[C@@H](CO)C(=O)N[C@H](C(=O)N[C@@H](CC(N)=O)C(=O)N[C@H](C(=O)NCC(=O)N[C@@H](CO)C(=O)N[C@@H](CCCNC(=N)N)C(=O)N[C@H](C(=O)N[C@@H](Cc1ccc(O)cc1)C(N)=O)[C@@H](C)O)C(C)C)[C@@H](C)O [Example 16] ({C20 diacid-γGlu}-KCNTATCATQRLAEFLRHSSPNFGAIPSSTNVGSRTY-NH2; disulfide 2-7) | ≥ 200 | ≥ 200 | ≥ 200 | ≥ 200 | ≥ 200 | ≥ 200 | ≥ 200 | ≥ 200 | 19.1 | 19.1 | 19.1 | 19.1 | 19.1 | 1.21 | 45.6 | 45.6 | 45.6 | 55.2 | 19.1 |
| CC[C@H](C)[C@H](NC(=O)[C@H](C)NC(=O)CNC(=O)[C@H](Cc1ccccc1)NC(=O)[C@H](CC(N)=O)NC(=O)[C@@H]1CCCN1C(=O)[C@H](CO)NC(=O)[C@H](CO)NC(=O)[C@H](Cc1c[nH]cn1)NC(=O)[C@H](CCCNC(=N)N)NC(=O)[C@H](CC(C)C)NC(=O)[C@H](Cc1ccccc1)NC(=O)[C@H](CCC(=O)O)NC(=O)[C@H](C)NC(=O)[C@H](CC(C)C)NC(=O)[C@H](CCCNC(=N)N)NC(=O)[C@H](CCC(N)=O)NC(=O)[C@@H](NC(=O)[C@H](C)NC(=O)[C@@H]1CSSC[C@H](NC(=O)[C@@H](N)CCCCNC(=O)CC[C@H](NC(=O)CCCCCCCCCCCCCCCCCCC(=O)O)C(=O)O)C(=O)N[C@@H](CC(N)=O)C(=O)N[C@@H]([C@@H](C)O)C(=O)N[C@@H](C)C(=O)N[C@@H]([C@@H](C)O)C(=O)N1)[C@@H](C)O)C(=O)N1CCC[C@H]1C(=O)N[C@@H](CO)C(=O)N[C@@H](CO)C(=O)N[C@H](C(=O)N[C@@H](CC(N)=O)C(=O)N[C@H](C(=O)NCC(=O)N[C@@H](CO)C(=O)N[C@@H](CC(N)=O)C(=O)N[C@H](C(=O)N1CCC[C@H]1C(N)=O)[C@@H](C)O)C(C)C)[C@@H](C)O [Example 12] (H-K([γGlu-C20 diacid])CNTATCATQRLAEFLRHSSPNFGAIPSSTNVGSNTP-NH2; disulfide 2-7 (inferred); N-terminus assumed) | ≥ 200 | ≥ 200 | ≥ 200 | ≥ 200 | ≥ 200 | ≥ 200 | ≥ 200 | ≥ 200 | 2.5 | – | 2.5 | – | – | – | 5.0 | – | – | 2.71 | – |
